# In patent US8030442B2, “Treatment of injury to the brain by inhibition of acid sensing ion channels” (priority 2004, dated 2011):
# Read-outs that look alike come from different tables or passages of the source.
# Columns and labels:
# cortical neurons [1] = experiment: LDH release after 1 hr oxygen-glucose deprivation combined with acidosis; type: cell-based, mouse; conditions: n=8-11
# Method: To determine if activation of ASICs in ischemic conditions produced greater neuronal injury, neurons from P1 ASIC1^+/+ and ASIC1^−/− mice were subjected to 1 hr acid treatment under oxygen and glucose deprivation.
# (§1) Following anesthesia with halothane, cerebral cortices were dissected from PI ASIC1^+/+ and ASIC1^−/− mice and incubated with 0.05% trypsin-EDTA for 10 min at 37° C. Tissues were then triturated with fire-polished glass pipettes and plated on poly-L-ornithine-coated 24-well plates or 25×25 mm glass coverslips at a density of 2.5×10^5 cells per well or 10^6 cells per coverslip. Neurons were cultured with MEM supplemented with 10% horse serum (for E16 cultures) or Neurobasal medium supplemented with B27 (for P1 cultures) and used for electrophysiology and toxicity studies after 12 days. Glial growth was suppressed by addition of 5-fluoro-2-deoxyuridine and uridine, yielding cultured cells with ˜90% neurons as determined by NeuN and GFAP staining (data not shown).
# […]. Oxygen-glucose deprivation was terminated after 1 hr by replacing the glucose-free ECF with Neurobasal medium and incubating the cultures in a normal cell culture incubator.
# Aarts et al. (2003) have recently studied ischemia molded by prolonged oxygen-glucose deprivation (2 hr) but without acidosis. […]
# [2] = system: cortical neurons cultured from ASIC+/+ and ASIC1-/- mice; experiment: LDH release in neurons cultured from ASIC+/+ and ASIC1-/- mice; type: cell-based, mouse; conditions: ASIC1-/- neurons, 1 hr 1 mM NMDA+10 μM glycine, Mg2+-free pH 7.4 ECF, n=4
# Method: as §1
# Cells were treated with either pH 7.4 or 6.0 ECF for 1 hr. LDH release was measured 24 hr after acid incubation. […] Background absorbance at 620 was subtracted.
# [3] = system: transient focal ischemia (middle cerebral artery occlusion); conditions: mouse, in vivo; for percentage of the infarct: iv
# Method: Ischemia was induced by introducing a coated filament (6.0; Doccol) from the external carotid artery into the internal carotid artery and advancing it into the arterial Will's Circle, thereby occluding the middle cerebral artery (32). Rectal and temporalis muscle temperature was maintained at 37° C.±0.5° C. with a thermostatically controlled heating pad and lamp. Cerebral blood flow was monitored by transcranial laser doppler. All surgical procedures were performed under an operating stereomicroscope.
# [4] = mouse, in vivo
# Method: We have, therefore, measured brain pH continuously with a fiber optic pH sensor in the ipsilateral and contralateral parietal cortex of mice immediately after the removal of the middle cerebral artery suture, to determine the degree, distribution, and the time course of acidosis following focal ischemia. Cerebral pH was evaluated in sham-operated animals, in vehicle-treated animals, in PcTX venom-treated animals, and in sodium bicarbonate treated animals. Values are mean±SE (n=3 for each group).
# (§2) Cerebral blood flow was monitored by transcranial laser doppler. All surgical procedures were performed under an operating stereomicroscope.
# For continuous measurement of pH in the brain, a fiber optic pH micro system (pHOptica, WPI) was used. This system has a pH range between 5 and 9, and the resolution is ±0.003 units. A glass-fiber with its pH-sensitive tip ([…]) was stereotaxically implanted into the brain immediately after the middle cerebral artery occlusion at the following coordinates from the bregma: 2.4 mm laterally, 0.1 posteriorly and 2.2 mm deep. pH was continuously measured for 6 h. The instrument was calibrated with standard solutions (pH 4.0, 5.0, 6.0, 7.0, 8.0, and 9.0) before and after the experiments. […] Changes in pH values were evaluated after PcTX and NaHCO3 intracerebroventricularly or intravenous administration 2 hours after occlusion.
# [5] = system: 60 min middle cerebral artery occlusion; experiment: Mouse 60 min middle cerebral artery occlusion, memantine with or without PcTX venom, infarct volume; type: in vivo; conditions: n=5
# [6] = system: transient focal ischemia (middle cerebral artery occlusion); type: in vivo, mouse; conditions: for percentage of the infarct volume: vehicle 50.6±2.3
# Method: To investigate the potential interaction between NMDA and ASIC1a blockade on infarct volume, memantine was administered before or after PcTX administration in rodents subjected to 60 min of middle cerebral artery occlusion and evaluated one day after ischemia induction.
# as §2
# Rodents were treated with saline, PcTX and/or memantine according to the following schedule: Saline IP administered 30 min after middle cerebral artery occlusion; PcTX 15: (0.5 μL, 500 ng/mL) administered 15 min after middle cerebral artery occlusion; Memantine 30 (1 mL, 10 mg/kg) administered 30 min after middle cerebral artery occlusion; PcTx15 min/Memantine 30, 60 120; PcTX (0.5 μL, 500 ng/mL) administration 15 min after middle cerebral artery occlusion followed by IP Memantine (1 mL, 10 mg/kg) administration 30 min, 60 min, or 120 min after PcTX. Memantinel 5/PcTx 180, 300, 360: Memantine (1 mL, 10 mg/kg) administration IP 15 min after middle cerebral artery occlusion followed by intracerebraventricular PcTX (0.5 μL, 500 ng/mL) 180 min, 300 min, or 360 min after Memantine. N=5 animals per group.
# FIG. 18 is a graph presenting exemplary data from experiments measuring the percentage of brain infarct volume as a function of the time (in minutes) of administration of memantine after mid-cerebral artery occlusion, in accordance with aspects of the present teachings. Memantine's time window (1 mL, 10 mg/kg). Memantine (0.1 mL, 10 mg/kg) or saline solution (1 mL) was IP-administered 15 minutes, 1 h, or 3 h after ischemia induction. […] Each column represents the mean±SE of the percentage of the infarct compared to the ipsilateral hemisphere.
# cortical neurons [7] = type: cell-based, mouse; conditions: preincubation 1 μM, n=6
compound,measurement,setting,value
COC(=O)[C@@H](N)CCCNC(=N)N[N+](=O)[O-] [L-NAME],combined 1 hr oxygen-glucose deprivation/acidosis-induced neuronal injury,cortical neurons [1]; 300 μM,neither trolox (500 μM) nor L-NAME (300 μM) had significant effect
CN[C@H](CC(=O)O)C(=O)O [NMDA],"LDH release at 24 hr, % of maximal",[2],84.8%±1.4%
"O=C([O-])O.[Na+] [bicarbonate, sodium bicarbonate]",relative infarct volume,[3],34.5±1.27%
same,percentage of the infarct,[3]; 2.5 mg/kg,61.51±5.03%
same,percentage of the infarct,[3]; 5 mg/kg,55.4±7.89%
same,brain pH value after administration,[4],7.25±0.25
same,modifying brain pH,[4]; iv,less effective
CC12CC3CC(C)(C1)CC(N)(C3)C2 [memantine],infarct volume,"[5]; ASIC1-/- mice, memantine ip",27.7±1.6 mm^3
same,infarct volume,"[5]; ASIC+/+ mice, 10 mg/kg ip, saline 101.4±9.4",61.6±12.7 mm^3
same,infarct volume,"[5]; memantine 10 mg/kg ip + aCSF icv, control 123.6±5.3",73.8±6.9 mm^3
same,percentage of the infarct volume,"[6]; 1 mg/kg 1 h after MCAO, n=5",55.4±5.2
same,percentage of the infarct volume,"[6]; 10 mg/kg 1 h after MCAO, n=5",41.0±3.4
same,percentage of the infarct volume,"[6]; 30 mg/kg 1 h after MCAO, n=5",43.4±3.8
same,survival of treated ischemic mice,"[6]; 100 mg/kg, n=5, all the mice",died
same,infarct volume,"[6]; memantine alone ip 1 h after MCAO (time window, FIG. 18), saline 50.6±2.3, n=5",40.3±4.3%
C/C=C(/C)C(=O)O[C@H]1C(C)=C2[C@H]([C@@H]1OC(=O)CCCCCCC)[C@@](C)(OC(C)=O)C[C@H](OC(=O)CCC)[C@@]1(O)[C@H]2OC(=O)[C@@]1(C)O [thapsigargin],sustained component of acid-induced Ca2+ increase,cortical neurons [7],partially inhibited
Cc1c(C)c2c(c(C)c1O)CCC(C)(C(=O)O)O2 (centres unmarked) [trolox],combined 1 hr oxygen-glucose deprivation/acidosis-induced neuronal injury,cortical neurons [1]; 500 μM,neither trolox (500 μM) nor L-NAME (300 μM) had significant effect
